Experimental data published in PMC6571122 (Journal of medicinal chemistry, 2019).
Several values for one entry are separate records, joined by “and”; a condition that tells them apart may be missing. Equal values may be shown once.

Key:
[1] = in vitro; settings: human, liver microsomes
[2] = mouse liver microsome intrinsic clearance; assay type: in vitro ADME; settings: liver microsomes
[3] = measured LogP octanol/buffer; assay type: physicochemical; settings: pH 11
[4] = kinetic solubility; assay type: physicochemical; settings: pH 7.4, Solubility (kinetic)
[5] = thermodynamic solubility; assay type: physicochemical
[6] = target: hERG (Homo sapiens, UniProt Q12809); assay: CEREP 44 safety screen, [3H] Dofetilide binding; settings: probe [3H] Dofetilide
Sequence of hERG (Q12809 whole entry): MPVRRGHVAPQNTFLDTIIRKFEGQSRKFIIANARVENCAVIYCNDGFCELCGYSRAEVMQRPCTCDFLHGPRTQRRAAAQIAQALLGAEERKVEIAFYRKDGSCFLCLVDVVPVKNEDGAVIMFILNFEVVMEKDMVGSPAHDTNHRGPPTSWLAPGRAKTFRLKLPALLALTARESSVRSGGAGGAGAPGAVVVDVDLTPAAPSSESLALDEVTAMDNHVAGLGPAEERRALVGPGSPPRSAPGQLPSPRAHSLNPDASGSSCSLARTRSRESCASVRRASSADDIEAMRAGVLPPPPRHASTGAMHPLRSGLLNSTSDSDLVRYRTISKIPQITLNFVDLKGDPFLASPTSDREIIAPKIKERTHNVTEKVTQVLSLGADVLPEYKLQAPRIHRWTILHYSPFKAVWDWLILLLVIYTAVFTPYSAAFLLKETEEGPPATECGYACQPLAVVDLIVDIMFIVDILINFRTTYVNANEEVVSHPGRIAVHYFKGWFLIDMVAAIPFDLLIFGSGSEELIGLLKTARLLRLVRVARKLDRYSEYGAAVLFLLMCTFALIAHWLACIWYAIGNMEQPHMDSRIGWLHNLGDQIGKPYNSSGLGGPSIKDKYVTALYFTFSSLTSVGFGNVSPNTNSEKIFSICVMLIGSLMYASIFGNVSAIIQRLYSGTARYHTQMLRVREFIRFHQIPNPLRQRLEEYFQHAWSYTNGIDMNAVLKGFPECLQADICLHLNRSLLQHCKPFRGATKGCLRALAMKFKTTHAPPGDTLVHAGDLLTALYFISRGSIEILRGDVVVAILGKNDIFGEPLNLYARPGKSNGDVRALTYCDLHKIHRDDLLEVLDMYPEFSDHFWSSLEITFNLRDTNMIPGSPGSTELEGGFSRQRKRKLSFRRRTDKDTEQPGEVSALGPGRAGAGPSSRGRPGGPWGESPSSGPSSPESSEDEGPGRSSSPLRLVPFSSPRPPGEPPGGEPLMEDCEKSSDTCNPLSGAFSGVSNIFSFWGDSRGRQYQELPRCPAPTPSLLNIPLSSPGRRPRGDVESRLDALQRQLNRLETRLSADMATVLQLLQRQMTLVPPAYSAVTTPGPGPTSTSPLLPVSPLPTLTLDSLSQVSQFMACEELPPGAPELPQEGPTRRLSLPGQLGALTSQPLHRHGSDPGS

[7] = brain to blood ratio; settings: female, CD1, mouse, in vivo, 10 mg/kg

Question: For `Nc1ncc(N2CCN(c3cccc(-c4cncnc4)c3)CC2)c(N)n1` [Compound 26, 5-(4-(3-(Pyrimidin-5-yl)phenyl)piperazin-1-yl)pyrimidine-2,4-diamine], which CLint scaled [1] is on record?
Answer: The CLint scaled was < 8.6 mL/min/kg.

Question: What about the CLint scaled at 1 h, 10 µM [2] of the same molecule?
Answer: Its CLint scaled at 1 h, 10 µM is 2700 mL/min/kg.

Question: Which CLint scaled at 1 h, 10 µM [1] does the source give for `Nc1ncc(N2CCN(c3cccc(-c4cnc(C(F)(F)F)nc4)c3)CC2)c(N)n1` [Compound 30, 5-(4-(3-(2-(Trifluoromethyl)pyrimidin-5-yl)phenyl)piperazin-1-yl)pyrimidine-2,4-diamine] here?
Answer: The CLint scaled at 1 h, 10 µM was 10.5 mL/min/kg.

Question: For `Nc1ncc(N2CCN(c3cccc(-c4cnccn4)c3)CC2)c(N)n1` [Compound 27, 5-(4-(3-(Pyrazin-2-yl)phenyl)piperazin-1-yl)pyrimidine-2,4-diamine], which CLint scaled [1] is on record?
Answer: The CLint scaled was < 8.6 mL/min/kg.

Question: For `Nc1ncc(N2CCN(c3cccc(-c4cnc(C5CC5)nc4)c3)CC2)c(N)n1` [Compound 31, 5-(4-(3-(2-Cyclopropylpyrimidin-5-yl)phenyl)piperazin-1-yl)pyrimidine-2,4-diamine], which CLint scaled at 1 h, 10 µM [1] is on record?
Answer: The CLint scaled at 1 h, 10 µM was 17.4 mL/min/kg.

Question: What does the source list for `CCc1nc(N)nc(N)c1-c1ccc(Cl)cc1` [Compound 1, Pyrimethamine, reference compound]?
Answer: CLint scaled [1]: < 8.6 mL/min/kg; logP [3]: 2.71

Question: For `Nc1ncc(N2CCN(c3cccc(-c4ncccn4)c3)CC2)c(N)n1` [Compound 25, 5-(4-(3-(Pyrimidin-2-yl)phenyl)piperazin-1-yl)pyrimidine-2,4-diamine], which CLint scaled [1] is on record?
Answer: The CLint scaled was < 8.6 mL/min/kg.

Question: What does the source list for `Nc1ncc(N2CCN(c3cccc(-c4ccccc4)c3)CC2)c(N)n1` [Compound 2]?
Answer: solubility kinetic [4]: < 4 µM; CLint scaled at 1 h, 10 µM [1]: 28.4 mL/min/kg; logP [3]: 3.38; solubility thermodynamic [5]: < 4 µM

Question: For `Nc1ncc(N2CCN(c3cccc(-c4ccnnc4)c3)CC2)c(N)n1` [Compound 28, 5-(4-(3-(Pyridazin-4-yl)phenyl)piperazin-1-yl)pyrimidine-2,4-diamine], which CLint scaled [1] is on record?
Answer: Its CLint scaled is < 8.6 mL/min/kg.

Question: Which CLint scaled at 1 h, 10 µM [1] does the source give for `Nc1ncc(N2CCN(c3cccc(-c4ccccn4)c3)CC2)c(N)n1` [Compound 22, 5-(4-(3-(pyridin-2-yl)phenyl)piperazin-1-yl)pyrimidine-2,4-diamine] here?
Answer: Its CLint scaled at 1 h, 10 µM is 17.7 mL/min/kg.

Question: With `COc1ncc(-c2cccc(N3CCN(c4cnc(N)nc4N)CC3)c2)cn1` [Compound 3, 5-(4-(3-(2-Methoxypyrimidin-5-yl)phenyl)piperazin-1-yl)pyrimidine-2,4-diamine] as the molecule, how does the inhibition at 10 µM [6] read?
Answer: The inhibition at 10 µM was 60%.

Question: What about the CLint scaled [1] of the same molecule?
Answer: The CLint scaled was < 8.6 mL/min/kg.

Question: What about the CLint scaled at 1 h, 10 µM [2] of the same molecule?
Answer: Its CLint scaled at 1 h, 10 µM is 56.3 mL/min/kg.

Question: What about the Kp at 0.5 h [7] of the same molecule?
Answer: Its Kp at 0.5 h is 1.7 ± 0.6.

Question: And the concentration at 0.5 h [7]?
Answer: Its concentration at 0.5 h is 2560 ng/g and 1610 ng/mL.

Question: Which results are given for `Cc1ncc(-c2cccc(N3CCN(c4cnc(N)nc4N)CC3)c2)cn1` [Compound 29, 5-(4-(3-(2-methylpyrimidin-5-yl)phenyl)piperazin-1-yl)pyrimidine-2,4-diamine]?
Answer: CLint scaled [1]: < 8.6 mL/min/kg; CLint scaled at 1 h, 10 µM [2]: 431 mL/min/kg

Question: For `Nc1ncc(N2CCN(c3cccc(-c4ccncc4)c3)CC2)c(N)n1` [Compound 24, 5-(4-(3-(Pyridin-4-yl)phenyl)piperazin-1-yl)pyrimidine-2,4-diamine], which CLint scaled at 1 h, 10 µM [1] is on record?
Answer: The CLint scaled at 1 h, 10 µM was 18.7 mL/min/kg.
